# Test results: article PMC12257073 (Cancer Research Communications, 2025)
# Several values for one entry are separate records, joined by “and”; a condition that tells them apart may be missing. Equal entries are not always repeated. Where two headings read alike, the source gives them in different places.
# Key:
# [1] = tested on: newly diagnosed AML with mutations in TP53 and/or complex karyotype; assay: Overall survival and duration of response (Kaplan–Meier); format: in vivo, human; conditions: for Response duration: No. of events / Response duration: median (95% CI): patients who achieved CR/CRh/CRi
# Method: Demographics were summarized by descriptive statistics. Duration of response was calculated from the date when composite CR was achieved to […], censoring patients who remained alive and relapse-free at the time of the last follow-up. OS was calculated from treatment start to all-cause death, censoring patients who were alive at the time of the last follow-up. Kaplan–Meier methodology was used to assess OS and duration of response.
# [2] = tested on: newly diagnosed AML with mutations in TP53 and/or complex karyotype
# Method: Dose-limiting toxicities (DLT) were evaluated to establish the dose brought forward for an expansion cohort (phase 2).
# The primary endpoint was achievement of CR within six cycles of therapy. Secondary endpoints included toxicity, duration of response, OS, and the proportion of eligible patients who effectively transitioned to allogeneic stem cell transplantation. Exploratory endpoints included pharmacokinetics (PK), correlative genetic, and biochemical data; correlations between morphologic remission, spectral flow cytometry, and mutational remission; and duration of remission or survival. […] Adverse events (AE) were graded according to the NCI Common Terminology Criteria for Adverse Events version 4.0 ([27]).
# The phase 1b portion of the study used a standard 3 + 3 design with dose-escalation based on DLT. […] In the first stage, if four or more of 12 patients achieved CR, then an additional 21 patients would be enrolled for a total of 33 patients. At the end of the study, if 12 or more of all 33 patients achieved CR, then the null hypothesis would be rejected.
# [3] = Treatment duration and reasons off treatment
# [4] = TP53-mutated patients, TP-0903 + decitabine, n = 20
# [5] = TP53-mutated patients, TP-0903 + decitabine
# [6] = group 1, TP-0903 37 mg/day + decitabine, n = 15
# [7] = group 1, TP-0903 37 mg/day + decitabine
# [8] = group 2, TP-0903 25 mg/day + decitabine, n = 12
# [9] = group 2, TP-0903 25 mg/day + decitabine
# [10] = overall, TP-0903 + decitabine, n = 27
# [11] = group 1, 37 mg TP-0903 + decitabine, 15 patients
# [12] = group 2, 25 mg TP-0903 + decitabine, 12 patients
structure (smiles),measurement,setting,value
"CN1CCN(Cc2ccc(Nc3ncc(Cl)c(Nc4ccccc4S(=O)(=O)N(C)C)n3)cc2)CC1.O=C(O)C(O)C(O)C(=O)O.O=C(O)C(O)C(O)C(=O)O [TP-0903, 2-(5-chloro-2-(4-((4-methylpiperazin-1-yl)methyl)phenylamino)pyrimidin-4-yl)amino-N,N-dimethylbenzene-1-sulfonamide di-tartrate salt]",OS: No. of events (deaths),[1]; [4],13
same,OS: median (95% CI),[1]; [4],10.0 (2.0–20.6) months
same,Response duration: No. of events,[1]; [5],6
same,Response duration: median (95% CI),[1]; [5],10.6 (3.3–NE) months
same,OS: No. of events (deaths),[1]; [6],10
same,OS: median (95% CI),[1]; [6],7.6 (2.0–20.6) months
same,Response duration: No. of events,[1]; [7],3
same,Response duration: median (95% CI),[1]; [7],13.8 months and 13.8 (7.3–NE) months
same,OS: No. of events (deaths),[1]; [8],7
same,OS: median (95% CI),[1]; [8],7.5 months and 7.5 (1.1 – NE) months
same,Response duration: No. of events,[1]; [9],5
same,Response duration: median (95% CI),[1]; [9],4.6 months and 4.6 (1.8–NE) months
same,OS: No. of events (deaths),[1]; [10],17
same,OS: median (95% CI),[1]; [10],7.6 (3.3–13.4) months
same,Response duration: No. of events,"[1]; overall, TP-0903 + decitabine",8
same,Response duration: median (95% CI),"[1]; overall, TP-0903 + decitabine",7.3 (3.3–13.8) months
same,Best response by 6 cycles: CR,[2]; [4],5 (25) no. (%)
same,Best response by 6 cycles: CRh,[2]; [4],4 (20) no. (%)
same,Best response by 6 cycles: CRi,[2]; [4],0 (0) no. (%)
same,Best response by 6 cycles: MLFS,[2]; [4],2 (10) no. (%)
same,Best response by 6 cycles: NE (not evaluable),[2]; [4],4 (20) no. (%)
same,Best response by 6 cycles: SD,[2]; [4],4 (20) no. (%)
same,Best response by 6 cycles: Treatment failure,[2]; [4],1 (5) no. (%)
same,Overall composite remission rate (CR/CRh/CRi),[2]; [4],"9 (45, 23.1–68.5) no. (%, 95% CI)"
same,Overall response rate (CR/CRh/CRi/MLFS),[2]; [4],"11 (55, 31.5–76.9) no. (%, 95% CI)"
same,CR in patients without a TP53 mutation,"[2]; five patients without a TP53 mutation, TP-0903 + decitabine",none of the five patients without a TP53 mutation achieved CR
same,Overall composite remission rate (CR/CRi/CRh),"[2]; group 1, 37 mg TP-0903 + decitabine, 5/15",33.3%
same,CR rate within six cycles (primary endpoint),[2]; [11],13.3% and 13%
same,CRh rate,[2]; [11],20%
same,MLFS rate,[2]; [11],7%
same,Stable disease (SD) rate,[2]; [11],33%
same,Treatment failure rate,[2]; [11],13%
same,Best response by 6 cycles: CR,[2]; [6],2 (13.3) no. (%)
same,Best response by 6 cycles: CRh,[2]; [6],3 (20) no. (%)
same,Best response by 6 cycles: CRi,[2]; [6],0 (0) no. (%)
same,Best response by 6 cycles: MLFS,[2]; [6],1 (6.7) no. (%)
same,Best response by 6 cycles: NE (not evaluable),[2]; [6],2 (13.3) no. (%)
same,Best response by 6 cycles: SD,[2]; [6],5 (33.3) no. (%)
same,Best response by 6 cycles: Treatment failure,[2]; [6],2 (13.3) no. (%)
same,Overall composite remission rate (CR/CRh/CRi),[2]; [6],"5 (33.3, 11.8–61.6) no. (%, 95% CI)"
same,Overall response rate (CR/CRh/CRi/MLFS),[2]; [6],"6 (40, 16.3–67.7) no. (%, 95% CI)"
same,Overall composite remission rate (CR/CRi/CRh),"[2]; group 2, 25 mg TP-0903 + decitabine, 6/12",50%
same,CR rate within six cycles (primary endpoint),[2]; [12],25%
same,CRh rate,[2]; [12],8%
same,CRi rate,[2]; [12],17%
same,MLFS rate,[2]; [12],8%
same,Patients who stopped treatment within four and 5 days because of AEs,[2]; [12],17%
same,Stable disease (SD) rate,[2]; [12],25%
same,Best response by 6 cycles: CR,[2]; [8],3 (25) no. (%)
same,Best response by 6 cycles: CRh,[2]; [8],1 (8.3) no. (%)
same,Best response by 6 cycles: CRi,[2]; [8],2 (16.7) no. (%)
same,Best response by 6 cycles: MLFS,[2]; [8],1 (8.3) no. (%)
same,Best response by 6 cycles: NE (not evaluable),[2]; [8],2 (16.7) no. (%)
same,Best response by 6 cycles: SD,[2]; [8],3 (25) no. (%)
same,Best response by 6 cycles: Treatment failure,[2]; [8],0 (0) no. (%)
same,Overall composite remission rate (CR/CRh/CRi),[2]; [8],"6 (50, 21.1–78) no. (%, 95% CI)"
same,Overall response rate (CR/CRh/CRi/MLFS),[2]; [8],"7 (58.3, 27.7–84.8) no. (%, 95% CI)"
same,Best response by 6 cycles: CR,[2]; [10],5 (18.5) no. (%)
same,Best response by 6 cycles: CRh,[2]; [10],4 (14.8) no. (%)
same,Best response by 6 cycles: CRi,[2]; [10],2 (7.4) no. (%)
same,Best response by 6 cycles: MLFS,[2]; [10],2 (7.4) no. (%)
same,Best response by 6 cycles: NE (not evaluable),[2]; [10],4 (14.8) no. (%)
same,Best response by 6 cycles: SD,[2]; [10],8 (29.6) no. (%)
same,Best response by 6 cycles: Treatment failure,[2]; [10],2 (7.4) no. (%)
same,Overall composite remission rate (CR/CRh/CRi),[2]; [10],"11 (40.7, 22.4–61.2) no. (%, 95% CI)"
same,Overall response rate (CR/CRh/CRi/MLFS),[2]; [10],"13 (48.2, 28.7–68.1) no. (%, 95% CI)"
same,Overall composite remission rate (CR/CRi/CRh),"[2]; patients with a TP53 mutation (n = 20), irrespective of group, 9/20",45%
same,True CR rate,"[2]; patients with mutant TP53 who received 25 mg TP-0903 + decitabine, 3 of 9",33.3%
same,Treatment discontinuation: AEs,"[3]; group 1, 37 mg TP-0903 + decitabine",13%
same,Off treatment for reason: Adverse event,"[3]; group 1, 37 mg, N = 15",2 (13.3) n (%)
same,Treatment discontinuation: AEs,"[3]; group 2, 25 mg TP-0903 + decitabine",17%
same,Off treatment for reason: Adverse event,"[3]; group 2, 25 mg, N = 12",2 (16.7) n (%)
same,Off treatment for reason: Adverse event,"[3]; overall, N = 27",4 (14.8) n (%)
